Data as given in patent publication US11344488B2 (TAKASAGO INTERNATIONAL CORPORATION, priority 2017, dated 2022).

Tests used:
human TRPM8 = target: T1, human TRPM8 (Homo sapiens, UniProt Q7Z2W7); assay: Evaluation of cooling intensity (TRPM8 activity evaluation), calcium fluorescence in human TRPM8 stable expression cells; type: cell-based; settings: TRPM8 activation action, Fluo4-AM fluorescence, 0.1 μM to 1000 μM, 32° C.
T1 construct: The full-length human TRPM8 gene was amplified from plasmid RC220615 (manufactured by Origene) using a PCR method; host or cells: Flp-In T-REx 293 cells ('Flp-In293293 cells' [sic]), pcDNA5/FRT/TO, doxycycline-induced
Description: The full-length human TRPM8 gene was amplified from plasmid RC220615 (manufactured by Origene) using a PCR method. The obtained PCR product was subcloned into pcDNA5/FRT/TO (manufactured by Thermo Fisher Scientific K.K.), and then it was introduced into Flp-In293293 cells (manufactured by Thermo Fisher Scientific K.K.) by using a Flp-InT-REx system (manufactured by Thermo Fisher Scientific K.K.), so that a human TRPM8 stable expression cell line was prepared.
The cultured human TRPM8 stable expression cells were seeded at a ratio of 50,000 cells/well to a poly-D-lysine-coated 96-well microplate (manufactured by Corning Incorporated), 1 μg/mL of doxycycline (manufactured by Takara Bio Inc.) was added thereto, and then the seeded cells were cultured at 37° C. for one night, so that the expression of the human TRPM8 was induced.
The culture solution was replaced with a buffer solution, and then, a fluorescent calcium indicator (Fluo4-AM: manufactured by Dojindo Laboratories) was added thereto, the cells were incubated at 37° C. for 30 minutes, and they were transferred to a fluorescent microplate reader (FlexStation3: manufactured by Molecular Devices, LLC.). Each of the compounds obtained in Examples and comparative compounds was added in a final concentration range of 0.1 μM to 1000 μM, and the changes in fluorescence having a wavelength of 525 nm when excited at a wavelength of 485 nm were measured at a device temperature of 32° C., and then EC50 values were determined.

oral cavity = assay: Sensory evaluation of 30 ppm aqueous solutions in the mouth by four flavorists; type: in vivo, human
Description: The evaluation was performed by four flavorists. The aqueous solution was taken into the mouth and spat out after the mouth was rinsed, and cooling intensity, cool-feeling persistence, and quality of a cool-feeling in the oral cavity were evaluated.

T1 sequence (Q7Z2W7 whole entry): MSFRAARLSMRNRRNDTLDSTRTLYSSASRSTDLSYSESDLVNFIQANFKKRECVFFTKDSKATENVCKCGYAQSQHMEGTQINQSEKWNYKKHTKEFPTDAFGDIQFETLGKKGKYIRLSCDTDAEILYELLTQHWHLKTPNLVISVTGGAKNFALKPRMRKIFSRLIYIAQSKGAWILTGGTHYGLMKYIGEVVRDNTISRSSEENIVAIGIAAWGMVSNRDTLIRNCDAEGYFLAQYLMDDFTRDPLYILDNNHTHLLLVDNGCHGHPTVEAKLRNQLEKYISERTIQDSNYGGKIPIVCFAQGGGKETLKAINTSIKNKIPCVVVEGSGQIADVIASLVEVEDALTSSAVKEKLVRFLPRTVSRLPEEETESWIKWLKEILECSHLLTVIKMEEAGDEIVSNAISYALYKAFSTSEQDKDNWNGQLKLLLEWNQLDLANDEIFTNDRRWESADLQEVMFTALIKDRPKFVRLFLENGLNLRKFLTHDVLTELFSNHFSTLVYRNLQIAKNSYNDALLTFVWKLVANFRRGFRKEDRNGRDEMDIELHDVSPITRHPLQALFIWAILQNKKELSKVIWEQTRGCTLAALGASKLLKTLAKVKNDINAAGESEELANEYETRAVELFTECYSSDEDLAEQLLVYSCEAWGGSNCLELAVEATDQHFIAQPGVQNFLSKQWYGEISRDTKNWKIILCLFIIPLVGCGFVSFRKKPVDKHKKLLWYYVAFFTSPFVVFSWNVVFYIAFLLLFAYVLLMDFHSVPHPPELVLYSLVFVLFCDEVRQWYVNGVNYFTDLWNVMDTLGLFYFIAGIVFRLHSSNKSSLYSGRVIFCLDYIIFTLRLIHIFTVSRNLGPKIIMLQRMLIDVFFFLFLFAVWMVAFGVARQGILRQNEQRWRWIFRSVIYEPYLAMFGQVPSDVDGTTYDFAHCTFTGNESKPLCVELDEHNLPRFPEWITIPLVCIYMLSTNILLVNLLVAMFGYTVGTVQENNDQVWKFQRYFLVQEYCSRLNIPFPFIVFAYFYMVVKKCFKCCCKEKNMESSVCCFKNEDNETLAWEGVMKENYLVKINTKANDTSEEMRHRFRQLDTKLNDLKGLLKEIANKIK

Compound	EC50 (human TRPM8)	melting point	other results
CNC(=O)[C@@H]1[C@@H](C)CCCC1(C)C (stereo in doubt) [N,2,2,6-tetramethylcyclohexanecarboxamide, reference compound]	110000 nM		
C[C@H]1CCCC(C)(C)[C@@H]1C(=O)NCC(=O)c1ccccc1 [(1R)-10-10, (1R, 6S)-2,2,6-trimethyl-N-(2-oxo-2-phenylethyl) cyclohexane-1-carboxamide]	1110 nM		
C[C@H]1CCCC(C)(C)[C@@H]1C(=O)NCCc1ccccc1 [(1R, 6S)-10-1, (1R, 6S)-2,2,6-trimethyl-N-phenethylcyclohexane-1-carboxamide]	590 nM	79 to 82 °C	cool-feeling persistence (oral cavity; 30 ppm aqueous solution): ≥ 30 min; cooling intensity (oral cavity; 30 ppm aqueous solution): very strong; cooling intensity compared with N,2,2,6-tetramethylcyclohexanecarboxamide, 1-menthol and WS-3 (oral cavity; 30 ppm aqueous solutions): apparently stronger; cooling intensity compared with WS-5 (oral cavity; 30 ppm aqueous solutions): stronger
C[C@H]1CCCC(C)(C)[C@@H]1C(=O)NCC(O)c1ccccc1 (stereo partly drawn) [(1R, 6S)-10-4, (1R, 6S)-N-(2-hydroxy-2-phenylethyl)-2,2,6-trimethylcyclohexane-1-carboxamide]	600 nM	95 to 98 °C	
C[C@H]1CCCC(C)(C)[C@@H]1C(=O)NC[C@H](O)c1ccccc1 [(1R, 6S)-10-5, (1R, 6S)-N-((R)-2-hydroxy-2-phenylethyl)-2,2,6-trimethylcyclohexane-1-carboxamide]	3960 nM		
C[C@H]1CCCC(C)(C)[C@@H]1C(=O)NC[C@@H](O)c1ccccc1 [(1R, 6S)-10-6, (1R, 6S)-N-((S)-2-hydroxy-2-phenylethyl)-2,2,6-trimethylcyclohexane-1-carboxamide]	550 nM	107 to 111 °C	
C[C@H]1CCCC(C)(C)[C@@H]1C(=O)NCCc1ccc(O)cc1 [(1R, 6S)-10-8, (1R, 6S)-N-(4-hydroxyphenethyl)-2,2,6-trimethylcyclohexane-1-carboxamide]	1190 nM	178 to 180 °C	
C[C@H]1CCCC(C)(C)[C@@H]1C(=O)NCCc1ccc(O)c(O)c1 [(1R, 6S)-10-12]	2550 nM	75 to 77 °C	
COc1ccc(CCNC(=O)[C@@H]2[C@@H](C)CCCC2(C)C)cc1OC [(1R, 6S)-10-13]	7720 nM		
C[C@H]1CCCC(C)(C)[C@@H]1C(=O)NCc1cccs1 [(1R, 6S)-10-22]	1970 nM		
C[C@H]1CCCC(C)(C)[C@@H]1C(=O)NCc1ccsc1 [(1R, 6S)-10-23]	3480 nM		
C[C@H]1CCCC(C)(C)[C@@H]1C(=O)Nc1ccc(O)cc1 [(1R, 6S)-10-27]	6140 nM		
COc1ccc(NC(=O)[C@@H]2[C@@H](C)CCCC2(C)C)cc1 [(1R, 6S)-10-28]	1590 nM		
C[C@H]1CCCC(C)(C)[C@@H]1C(=O)Nc1ccc2c(c1)OCO2 [(1R, 6S)-10-33]	3750 nM		
CC(=O)c1ccc(NC(=O)[C@@H]2[C@@H](C)CCCC2(C)C)cc1 [(1R, 6S)-10-35]	1190 nM		
C[C@H]1CCCC(C)(C)[C@@H]1C(=O)Nc1ccc(CCO)cc1 [(1R, 6S)-10-36]	1670 nM	85 to 87 °C	
COC(=O)c1ccc(NC(=O)[C@@H]2[C@@H](C)CCCC2(C)C)cc1 [(1R, 6S)-10-38]	5760 nM		
CSc1ccc(NC(=O)[C@@H]2[C@@H](C)CCCC2(C)C)cc1 [(1R, 6S)-10-41]	1060 nM		
C[C@H]1CCCC(C)(C)[C@@H]1C(=O)Nc1ccc(CC#N)cc1 [(1R, 6S)-10-42]	1770 nM		
C[C@H]1CCCC(C)(C)[C@@H]1C(=O)Nc1ccncc1 [(1R, 6S)-10-43]	15000 nM		
C[C@H]1CCCC(C)(C)C1C(=O)OC[C@@H](O)c1ccccc1 (stereo partly drawn) [(1R, 6S)-10-51]	1740 nM		
C[C@H]1CCCC(C)(C)[C@H]1C(=O)NCC(=O)c1ccccc1 [(1S)-10-10, (1S, 6S)-2,2,6-trimethyl-N-(2-oxo-2-phenylethyl) cyclohexane-1-carboxamide]	2100 nM		
C[C@@H]1CCCC(C)(C)[C@H]1C(=O)NCC(O)c1ccccc1 (stereo partly drawn) [(1S, 6R)-10-4, (1S, 6R)-N-(2-hydroxy-2-phenylethyl)-2,2,6-trimethylcyclohexane-1-carboxamide]	6360 nM	96 to 99 °C	
C[C@@H]1CCCC(C)(C)[C@H]1C(=O)NC[C@H](O)c1ccccc1 [(1S, 6R)-10-5, (1S, 6R)-N-((R)-2-hydroxy-2-phenylethyl)-2,2,6-trimethylcyclohexane-1-carboxamide]	7680 nM	105 to 110 °C	
C[C@@H]1CCCC(C)(C)[C@H]1C(=O)NC[C@@H](O)c1ccccc1 [(1S, 6R)-10-6, (1S, 6R)-N-((S)-2-hydroxy-2-phenylethyl)-2,2,6-trimethylcyclohexane-1-carboxamide]	5980 nM		
C[C@@H]1CCCC(C)(C)[C@H]1C(=O)NCCc1ccc(O)cc1 [(1S, 6R)-10-8, (1S, 6R)-N-(4-hydroxyphenethyl)-2,2,6-trimethylcyclohexane-1-carboxamide]	5900 nM	180 to 182 °C	
COc1ccc(CNC(=O)C2[C@@H](C)CCCC2(C)C)cc1 (stereo partly drawn) [(1S, 6R)-10-28]	2420 nM		
CCNC(=O)[C@@H]1C[C@H](C)CCC1C(C)C (stereo partly shown) [WS-3, reference compound]	1610 nM		
CCOC(=O)CNC(=O)[C@@H]1C[C@H](C)CCC1C(C)C (stereo partly shown) [WS-5, reference compound]	730 nM		
CCNC(=O)C(C)(C(C)C)C(C)C [WS-23, reference compound]	23100 nM		
